The text below walks through data of ChEMBL document CHEMBL4184323, “Structure-Guided Design, Synthesis, and Characterization of Next-Generation Meprin β Inhibitors” (J Med Chem, 2018).

The Cmax is the peak of the concentration-time curve. For orientation: half-life means how long it takes for the measured level to halve. Usually clearance stands for the volume of plasma or blood freed of the substance per unit of time.

One data set has as its target T1, meprin alpha (Homo sapiens, UniProt Q16819).
T1 sequence (Q16819 whole entry): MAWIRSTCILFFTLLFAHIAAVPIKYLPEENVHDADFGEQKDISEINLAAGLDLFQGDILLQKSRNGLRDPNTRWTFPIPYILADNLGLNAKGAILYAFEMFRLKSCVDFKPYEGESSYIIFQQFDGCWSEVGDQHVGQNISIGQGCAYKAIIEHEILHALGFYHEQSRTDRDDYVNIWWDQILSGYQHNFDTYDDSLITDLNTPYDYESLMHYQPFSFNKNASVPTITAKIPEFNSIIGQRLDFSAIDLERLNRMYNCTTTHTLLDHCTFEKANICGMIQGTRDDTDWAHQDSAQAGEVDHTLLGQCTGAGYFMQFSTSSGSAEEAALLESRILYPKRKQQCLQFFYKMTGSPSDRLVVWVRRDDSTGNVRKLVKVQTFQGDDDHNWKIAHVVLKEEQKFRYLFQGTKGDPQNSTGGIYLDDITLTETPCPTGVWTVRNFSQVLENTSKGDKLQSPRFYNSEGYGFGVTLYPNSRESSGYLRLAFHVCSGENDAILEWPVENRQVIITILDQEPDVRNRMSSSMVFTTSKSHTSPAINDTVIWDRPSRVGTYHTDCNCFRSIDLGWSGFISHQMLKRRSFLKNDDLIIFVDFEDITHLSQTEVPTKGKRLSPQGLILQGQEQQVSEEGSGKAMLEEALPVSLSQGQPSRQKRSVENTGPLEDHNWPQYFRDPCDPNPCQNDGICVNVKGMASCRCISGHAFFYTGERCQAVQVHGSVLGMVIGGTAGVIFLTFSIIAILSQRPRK
Put plainly: Inhibition of recombinant human meprin alpha expressed in insect cells assessed as residual activity using Abz-YVADAPK(Dnp)G-OH as substrate at 200 uM by fluorescence assay relative to control. The settings on record: probe Abz-YVADAPK(Dnp)G-OH, read-out: Activity.

A short description of data set [1]: Cmax in Sprague-Dawley rat at 5 mg/kg, po by LC-MS analysis. Type of data set: ADME, organism-based. Details: dose 5 mg/kg, route oral. The settings on record: in vivo.
A further data set has as its system Rattus norvegicus. The experiment in a line: Volume of distribution in Sprague-Dawley rat at 5 mg/kg, po by LC-MS analysis. Type of data set: ADME, organism-based. The settings on record: in vivo.
Data set [2] in a line: Drug absorption in Sprague-Dawley rat at 10 mg/kg, ip by LC-MS analysis. Type of data set: ADME, organism-based. The settings on record: in vivo, read-out: Fabs.
Data set [3] can be described thus: Cmax in Sprague-Dawley rat at 10 mg/kg, ip by LC-MS analysis. Type of data set: ADME, organism-based. Also noted: dose 10 mg/kg, route intraperitoneal. The settings on record: in vivo.
A short description of data set [4]: Half life in Sprague-Dawley rat at 6 mg/kg, iv by LC-MS analysis. The format is ADME, organism-based. The settings on record: in vivo.
Data set [5] in a line: Clearance in Sprague-Dawley rat at 6 mg/kg, iv by LC-MS analysis. Type of data set: ADME, organism-based. The settings on record: in vivo.
The nature of data set [6]: Volume of distribution at steady state in Sprague-Dawley rat at 6 mg/kg, iv by LC-MS analysis. Type of data set: ADME, organism-based. The settings on record: in vivo, read-out: Vdss.
In the next data set the target is MMP2 (Homo sapiens, UniProt P08253). The experiment in a line: Inhibition of human MMP2 assessed as residual activity using Mca-PLGL-(DapDnp)-AR-NH2 as substrate at 200 uM by fluorescence assay relative to control. The settings on record: human MMP2 enzyme, probe Mca-PLGL-(DapDnp)-AR-NH2, read-out: Activity.
A further data set concerns the target MMP9 (Homo sapiens, UniProt P14780). Put plainly: Inhibition of human MMP9 assessed as residual activity using Mca-PLGL-(DapDnp)-AR-NH2 as substrate at 200 uM by fluorescence assay relative to control. The settings on record: human MMP9 enzyme, probe Mca-PLGL-(DapDnp)-AR-NH2, read-out: Activity.
The target of another data set is MMP13 (Homo sapiens, UniProt P45452). Put plainly: Inhibition of human MMP13 assessed as residual activity using Mca-PLGL-(DapDnp)-AR-NH2 as substrate at 200 uM by fluorescence assay relative to control. The settings on record: human MMP13 enzyme, probe Mca-PLGL-(DapDnp)-AR-NH2, read-out: Activity.
The next data set deals with T2, ADAM10 (Homo sapiens, UniProt O14672).
T2 sequence (O14672 whole entry): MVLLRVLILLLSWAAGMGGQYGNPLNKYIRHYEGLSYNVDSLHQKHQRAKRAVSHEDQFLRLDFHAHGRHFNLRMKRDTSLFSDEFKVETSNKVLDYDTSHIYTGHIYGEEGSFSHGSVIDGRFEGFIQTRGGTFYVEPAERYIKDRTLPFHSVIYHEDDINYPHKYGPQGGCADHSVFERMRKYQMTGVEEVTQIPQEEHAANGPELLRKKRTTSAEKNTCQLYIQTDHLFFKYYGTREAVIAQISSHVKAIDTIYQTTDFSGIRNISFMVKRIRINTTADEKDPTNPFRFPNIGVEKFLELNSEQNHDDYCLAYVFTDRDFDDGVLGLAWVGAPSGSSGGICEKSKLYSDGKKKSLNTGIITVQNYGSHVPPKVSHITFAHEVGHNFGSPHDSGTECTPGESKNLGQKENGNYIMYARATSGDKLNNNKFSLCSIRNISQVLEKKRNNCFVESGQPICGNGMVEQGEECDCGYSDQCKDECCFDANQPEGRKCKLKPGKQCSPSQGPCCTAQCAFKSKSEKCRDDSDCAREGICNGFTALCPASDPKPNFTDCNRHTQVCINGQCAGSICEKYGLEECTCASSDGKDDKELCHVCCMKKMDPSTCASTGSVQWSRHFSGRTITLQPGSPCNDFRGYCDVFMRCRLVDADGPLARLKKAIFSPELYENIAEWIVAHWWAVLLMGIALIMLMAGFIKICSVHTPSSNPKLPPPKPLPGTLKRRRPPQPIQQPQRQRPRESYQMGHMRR
The experiment in a line: Inhibition of human ADAM10 assessed as residual activity using Abz-LANAVRSSSR-(DapDnp)-AR-NH2 as substrate at 200 uM by fluorescence assay relative to control. The settings on record: human ADAM10 enzyme, probe Abz-LANAVRSSSR-(DapDnp)-AR-NH2, read-out: Activity.

For the next data set, the target named is ADAM17 (Homo sapiens, UniProt P78536). The experiment in a line: Inhibition of human ADAM17 assessed as residual activity using Abz-LANAVRSSSR-(DapDnp)-AR-NH2 as substrate at 200 uM by fluorescence assay relative to control. The settings on record: human ADAM17 enzyme, probe Abz-LANAVRSSSR-(DapDnp)-AR-NH2, read-out: Activity.
Another data set addresses CYP3A4 (Homo sapiens, UniProt P08684). Put plainly: Inhibition of recombinant human CYP3A4 expressed in baculosomes assessed as residual activity at 25 uM using BOMCC substrate by fluorescence assay relative to control. The format is ADME. The settings on record: probe BOMCC, read-out: Activity.
For another data set, the system named is SH-SY5Y. The experiment in a line: Cytotoxicity in human SH-SY5Y cells assessed as cell viability at 100 uM after 24 hrs by CytoTox-ONE-based assay relative to control. The format is functional. The settings on record: read-out: Activity.
The test system of the next data set is HepG2. Put plainly: Cytotoxicity in human HepG2 cells assessed as cell viability at 100 uM after 24 hrs by CytoTox-ONE-based assay relative to control. Type of data set: functional. The settings on record: HepG2, 24 h, read-out: Activity.
The species entered for another data set is Homo sapiens. The experiment in a line: Selectivity ratio of IC50 for recombinant human meprin alpha expressed in insect cells to IC50 for recombinant human meprin beta expressed in yeast.

Sequence of MMP9 (P14780 whole entry): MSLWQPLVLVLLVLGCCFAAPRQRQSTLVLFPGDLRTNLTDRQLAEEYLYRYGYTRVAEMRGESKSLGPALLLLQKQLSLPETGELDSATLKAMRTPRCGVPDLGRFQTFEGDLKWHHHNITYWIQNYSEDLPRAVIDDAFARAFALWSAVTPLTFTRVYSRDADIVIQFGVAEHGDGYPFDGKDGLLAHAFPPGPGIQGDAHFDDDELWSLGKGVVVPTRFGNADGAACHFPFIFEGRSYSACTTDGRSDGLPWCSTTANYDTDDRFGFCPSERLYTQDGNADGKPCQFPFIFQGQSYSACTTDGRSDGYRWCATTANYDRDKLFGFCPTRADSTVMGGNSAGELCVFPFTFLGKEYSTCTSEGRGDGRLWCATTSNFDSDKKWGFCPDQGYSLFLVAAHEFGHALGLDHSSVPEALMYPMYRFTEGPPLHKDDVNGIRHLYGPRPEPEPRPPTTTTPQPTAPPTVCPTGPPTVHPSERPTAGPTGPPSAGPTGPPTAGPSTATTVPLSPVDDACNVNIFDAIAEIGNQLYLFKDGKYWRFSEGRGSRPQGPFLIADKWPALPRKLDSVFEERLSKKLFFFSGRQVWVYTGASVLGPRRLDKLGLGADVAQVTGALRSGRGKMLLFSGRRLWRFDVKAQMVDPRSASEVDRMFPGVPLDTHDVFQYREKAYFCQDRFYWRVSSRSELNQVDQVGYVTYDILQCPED
Sequence of ADAM17 (P78536 whole entry): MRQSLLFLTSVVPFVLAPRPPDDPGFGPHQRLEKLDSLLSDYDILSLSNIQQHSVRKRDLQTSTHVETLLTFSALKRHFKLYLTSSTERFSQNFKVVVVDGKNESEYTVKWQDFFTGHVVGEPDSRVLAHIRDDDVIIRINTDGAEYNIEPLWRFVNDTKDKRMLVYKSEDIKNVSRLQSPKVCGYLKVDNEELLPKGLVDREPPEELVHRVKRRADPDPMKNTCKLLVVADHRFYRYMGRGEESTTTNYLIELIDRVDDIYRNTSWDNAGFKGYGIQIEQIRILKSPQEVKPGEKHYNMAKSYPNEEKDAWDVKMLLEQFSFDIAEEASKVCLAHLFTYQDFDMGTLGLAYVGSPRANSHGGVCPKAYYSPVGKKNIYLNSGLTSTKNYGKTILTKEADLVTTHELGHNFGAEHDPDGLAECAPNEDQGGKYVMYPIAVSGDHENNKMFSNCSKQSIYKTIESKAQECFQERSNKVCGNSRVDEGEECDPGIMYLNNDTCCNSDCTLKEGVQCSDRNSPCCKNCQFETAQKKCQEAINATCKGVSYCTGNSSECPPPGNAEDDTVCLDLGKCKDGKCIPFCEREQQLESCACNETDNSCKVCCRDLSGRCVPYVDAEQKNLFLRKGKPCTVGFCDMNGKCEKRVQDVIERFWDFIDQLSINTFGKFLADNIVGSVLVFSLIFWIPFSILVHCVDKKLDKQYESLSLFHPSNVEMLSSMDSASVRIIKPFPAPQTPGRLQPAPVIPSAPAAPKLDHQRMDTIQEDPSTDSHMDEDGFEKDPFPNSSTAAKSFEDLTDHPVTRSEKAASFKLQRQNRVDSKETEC
Sequence of MMP2 (P08253 whole entry): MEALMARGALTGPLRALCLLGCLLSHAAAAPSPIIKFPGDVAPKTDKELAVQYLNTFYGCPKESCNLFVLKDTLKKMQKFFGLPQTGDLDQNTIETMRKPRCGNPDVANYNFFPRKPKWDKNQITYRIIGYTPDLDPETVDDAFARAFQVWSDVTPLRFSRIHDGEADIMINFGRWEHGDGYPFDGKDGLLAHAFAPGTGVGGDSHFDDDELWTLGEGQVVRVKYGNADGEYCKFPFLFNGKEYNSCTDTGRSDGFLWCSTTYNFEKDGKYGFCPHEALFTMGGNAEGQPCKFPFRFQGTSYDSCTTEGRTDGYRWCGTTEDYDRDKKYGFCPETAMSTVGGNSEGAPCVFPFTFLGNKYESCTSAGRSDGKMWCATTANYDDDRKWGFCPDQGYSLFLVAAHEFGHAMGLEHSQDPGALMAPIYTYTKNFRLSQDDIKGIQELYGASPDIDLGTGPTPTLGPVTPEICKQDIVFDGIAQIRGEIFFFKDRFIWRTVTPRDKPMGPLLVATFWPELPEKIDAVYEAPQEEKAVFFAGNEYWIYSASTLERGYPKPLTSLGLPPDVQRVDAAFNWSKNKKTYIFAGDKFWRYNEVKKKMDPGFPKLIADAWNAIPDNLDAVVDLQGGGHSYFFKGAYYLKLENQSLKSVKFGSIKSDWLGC
Sequence of CYP3A4 (P08684 whole entry): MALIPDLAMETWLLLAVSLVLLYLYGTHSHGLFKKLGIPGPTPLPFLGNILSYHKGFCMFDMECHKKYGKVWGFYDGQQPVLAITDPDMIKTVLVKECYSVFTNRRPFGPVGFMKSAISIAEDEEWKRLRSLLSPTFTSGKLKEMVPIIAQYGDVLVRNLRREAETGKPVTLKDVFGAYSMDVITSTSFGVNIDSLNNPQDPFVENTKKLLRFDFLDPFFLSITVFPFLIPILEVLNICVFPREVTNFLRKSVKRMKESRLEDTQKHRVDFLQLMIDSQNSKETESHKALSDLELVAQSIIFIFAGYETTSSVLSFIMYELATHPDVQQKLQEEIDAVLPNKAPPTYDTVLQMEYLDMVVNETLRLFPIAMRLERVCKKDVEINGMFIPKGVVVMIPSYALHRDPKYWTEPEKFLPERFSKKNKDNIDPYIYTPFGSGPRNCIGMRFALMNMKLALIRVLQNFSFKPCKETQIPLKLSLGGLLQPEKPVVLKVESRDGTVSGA

On to `O=C(CN(Cc1cccc(C(=O)O)c1)Cc1cccc(C(=O)O)c1)NO`, for which the activity at 200 µM at meprin alpha is less than 10%; at MMP2, 64%; on MMP9, 74%; at MMP13 it was 78%; at ADAM10, 93%; on ADAM17 it was 76%. Further, the results for the Cmax in data set [1] and in data set [3] were 340 ng/mL and 6460 ng/mL, respectively. Moreover, the values for the Vd (in the data set with Rattus norvegicus; in data set [6]) were 0.073 L and 0.42 L/kg, respectively. Besides, the Fa in [2] is 84%. In data set [4], this molecule showed a half-life of 2.5 h. The molecule further gave a clearance in [5] of 29.7 mL/min/kg. Moreover, on CYP3A4, the activity at 25 µM was 86%. Also, the viability at 100 µM was found to be 96% in the data set on SH-SY5Y and 97% with HepG2. Moreover, the Ratio IC50 in the data set filed under Homo sapiens was 300.
